We go through four compounds from patent publication US12630538B2, “Anti-viral compounds” (Aligos Therapeutics, Inc., priority 2022, dated 2026).

Where only a bound is given, the exact number is not on record here.

In one data set the target is T1, human cathepsin L (Homo sapiens, UniProt P07711).
T1 construct: purchased R&D Systems
As to the kind of experiment: Cathepsin L assay. Format: biochemical. The note with it: 10 pM human cathepsin L, substrate Z-FR-AMC 2 μM. Here is the method:
For the cathepsin L assay, 10 pM of human cathepsin L (R&D Systems; Minneapolis, MN) was preincubated for 30 mins with test compounds. Reactions were initiated by the addition of a peptide substrate Z-FR-AMC (final concentration 2 μM, Anaspec; Fremont, CA). Fluorescence was measured at 2-minute intervals for 30 mins using a 355/460 excitation/emission filter module on an Envision plate reader (Perkin Elmer; Waltham, MA). The IC50 values were calculated for each assay by fitting the curves using a four-parameter equation in GraphPad Prism.

Data set [1] in a line: Cytotoxicity in HeLa cells without OC43 virus. It is filed as cell-based. The note with it: human, cell-titer-glo. How it is done:
(§1) The human beta-coronavirus OC43 was purchased from ATCC (Manassas, VA) and propagated using HCT-8 human colorectal epithelial cells (ATCC). HeLa human cervical epithelial cells (ATCC) were used as susceptible host cell lines and were cultured using EMEM media, supplemented with 10% fetal bovine serum (FBS), 1% (v/v) penicillin/streptomycin (P/S), 1% (v/v) HEPES and 1% (v/v) cellgro Glutagro™ supplement (all Corning, Manassas, VA) at 37° C. For the OC43 antiviral assay, 1.5×10^4 HeLa cells per well were plated in 100 μL complete media in white 96-well plates with clear bottoms at 37° C. for up to 24 h to facilitate attachment and allow cells to recover from seeding stresses. Next day, the cell culture medium was removed. […] 100 μL of OC43 virus stock was diluted to a concentration known to produce optimal cytopathic effect, inducing 80-90% reduction in cell viability. 96-well plates were incubated for 6 (HeLa) days at 33° C.; each plate contains uninfected control wells as well as virus-infected wells that were not treated with compound. Cytotoxicity plates without the addition of OC43 virus were carried out in parallel. At the end of the incubation period, 100 μL cell culture supernatant was replaced with 100 μL cell-titer-glo reagent (Promega, Madison, WI) and incubated for at least 10 min at rt prior to measuring luminescence. Luminescence was measured on a Perkin Elmer (Waltham, MA) Envision plate reader. Antiviral % inhibition was calculated as follows: [(Compound treated cells infected sample)−(no compound infected control)]/[(Uninfected control)−(no compound infected control)]*100; Using GraphPad (San Diego, CA) prism software version 8.3.1, the antiviral dose-response plot was generated as a sigmoidal fit, log(inhibitor) vs response-variable slope (four parameters) model and the EC50 was calculated which is the predicted compound concentration corresponding to a 50% inhibition of the viral cytopathic effect.

A short description of a further data set: in vitro. The note with it: human, A549-dual ACE2 TMPRSS2 cells without virus.
The next data set has as its target T2, SARS-Cov-2 3CLpro (Severe acute respiratory syndrome coronavirus 2, UniProt P0DTD1).
T2 construct: 3CLpro and HRV3C was added using a Multidrop Combi
Kind of data set: SARS-Cov-2 3CLpro and HRV3C duplex assay (SAMDI-MS): 3CLpro. Format: biochemical. The note with it: 30 mins preincubation.

In data set [2] the test system is human beta-coronavirus OC43. As to the kind of experiment: OC43 coronavirus antiviral assay in HeLa cells. It is filed as cell-based. The note with it: Betacoronavirus 1, 144 h, 6 days at 33° C., viral cytopathic effect, cell-titer-glo. Here is the method: as §1
For data set [3], the system named is SARS-CoV-2 B.1.1.7 lineage. As to the kind of experiment: microbe, parasite or virus in culture. The note with it: Severe acute respiratory syndrome coronavirus 2, 96 h; read-out: A549-dual_ACE2_TMPRSS2 (EC50). Format: cell-based.
The next data set concerns the target T3, HRV3C (Human rhinovirus 14, UniProt P03303).
T3 construct: 3CLpro and HRV3C was added using a Multidrop Combi
Kind of data set: SARS-Cov-2 3CLpro and HRV3C duplex assay (SAMDI-MS): HRV3C. Format: biochemical. The note with it: 30 mins preincubation, read-out: HRV (IC50).

A further data set deals with SARS-CoV-2. The note with it: cited from earlier work.
In another data set the target is 3CLpro (Severe acute respiratory syndrome coronavirus 2, UniProt P0DTD1). The note with it: cited from earlier work.

The IC50 is the concentration that gives 50% inhibition. The term CC50 denotes the concentration that lowers cell viability or growth by half. Lower therefore signals greater toxicity to the cells. By EC50 is commonly meant the concentration needed to bring the measured effect to its halfway point.

T1 sequence (P07711 114-333): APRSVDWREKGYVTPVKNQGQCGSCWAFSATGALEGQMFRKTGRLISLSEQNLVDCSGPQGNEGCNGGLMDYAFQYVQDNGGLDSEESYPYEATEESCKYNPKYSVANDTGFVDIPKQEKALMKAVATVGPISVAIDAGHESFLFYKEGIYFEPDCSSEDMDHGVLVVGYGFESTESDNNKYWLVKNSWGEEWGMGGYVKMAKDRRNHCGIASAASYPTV
T3 sequence (P03303 1538-1719): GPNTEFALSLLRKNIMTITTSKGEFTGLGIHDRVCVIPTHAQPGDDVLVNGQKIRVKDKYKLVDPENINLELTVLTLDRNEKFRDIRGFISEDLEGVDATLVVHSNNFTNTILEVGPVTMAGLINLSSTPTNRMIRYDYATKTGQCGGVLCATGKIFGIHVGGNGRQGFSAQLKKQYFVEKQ

Take `COC(=O)N[C@H](C(=O)N1C[C@H]2[C@@H]([C@H]1C(=O)N[C@H](C#N)C[C@@H]1CCNC1=O)[C@H]1C=C[C@@H]2C1)C(C)(C)C` [Compound 1, methyl ((S)-1-((1S,3aR,4S,7R,7aS)-1-(((S)-1-cyano-2-((S)-2-oxopyrrolidin-3-yl)ethyl)carbamoyl)-1,3,3a,4,7,7a-hexahydro-2H-4,7-methanoisoindol-2-yl)-3,3-dimethyl-1-oxobutan-2-yl)carbamate]: the IC50 at human cathepsin L was no less than 10000 nM; against SARS-Cov-2 3CLpro, less than 20 nM; at HRV3C, greater than 500 nM. Moreover, in [1], the CC50 at 6 days was greater than 100000 nM. In “in vitro”, the CC50 is greater than 1000 nM. Also, the half-maximal effective concentration (EC50) in data set [2] and in data set [3] was less than 100 nM in each case.
For the compound `COC(=O)N[C@H](C(=O)N1C[C@@H]2[C@H]3C[C@@H]([C@@H]2[C@H]1C(=O)N[C@H](C#N)C[C@@H]1CCNC1=O)[C@H](F)C3)C(C)(C)C` [Compound 2, methyl N-[(2S)-1-[(1S,2R,3S,6R,7S,9R)-3-{[(1S)-1-cyano-2-[(3S)-2-oxopyrrolidin-3-yl]ethyl]carbamoyl}-9-fluoro-4-azatricyclo[5.2.1.0^{2,6}]decan-4-yl]-3,3-dimethyl-1-oxobutan-2-yl]carbamate], the IC50 against human cathepsin L is no less than 10000 nM; at SARS-Cov-2 3CLpro, less than 20 nM; on HRV3C, greater than 500 nM. Besides, the CC50 at 6 days in data set [1] is greater than 100000 nM. Also, the CC50 in “in vitro” was greater than 1000 nM. Further, the EC50 in data set [2] is less than 100 nM; in [3], 100 to 1000 nM.
On to `CC(C)(C)[C@H](NC(=O)OC1CC1)C(=O)N1C[C@@H]2[C@H]3C[C@@H]([C@@H]2[C@H]1C(=O)N[C@H](C#N)C[C@@H]1CCNC1=O)[C@H](F)C3` [Compound 3, cyclopropyl ((S)-1-((1S,3aR,4S,6R,7S,7aR)-1-(((S)-1-cyano-2-((S)-2-oxopyrrolidin-3-yl)ethyl)carbamoyl)-6-fluorooctahydro-2H-4,7-methanoisoindol-2-yl)-3,3-dimethyl-1-oxobutan-2-yl)carbamate], for which the 50% inhibitory concentration (IC50) on human cathepsin L is no less than 10000 nM; on SARS-Cov-2 3CLpro, less than 20 nM; at HRV3C, greater than 500 nM. In addition, the CC50 at 6 days in data set [1] was greater than 100000 nM. For the same compound, the CC50 in the data set “in vitro” is greater than 1000 nM. Also, the EC50 in data set [2] and in [3] was less than 100 nM throughout.
For `CN1CCN(C(=O)N[C@@H](Cc2ccccc2)C(=O)N[C@H](/C=C/S(=O)(=O)c2ccccc2)CCc2ccccc2)CC1` [Compound K117777], the “antiviral effect when TMPRSS2 was expressed” value in the data set on SARS-CoV-2 (A549-ACE2 expressing TMPRSS2) is “abolished”. Also, the “inhibition of SARS-CoV-2” value in the data set with SARS-CoV-2 (VeroE6, A549-ACE2 and/or HeLa-ACE2) is reported as “potent inhibition”. On 3CLpro, the “inhibitory effect on the 3CLpro” value is listed as “lacks an inhibitory effect”.
